The values below come from US12275733B2, “Substituted pyrido[3,4-b]indoles for the treatment of cartilage disorders” (Sanofi, priority 2016, dated 2025).

Test [1] deals with ATDC5 cells. Kind of test: Chondrogenesis activity assay in ATDC5 cells (collagen type II induction, immunofluorescence). Type of test: cell-based, mouse. The following applies: Mus musculus; for EC50: collagen type II induction in ATDC5 cells, concentration reaching 50% of maximum induction; for Emax: maximum percent induction of collagen type II relative to internal reference compound at 10 μM, ATDC5 cells. Summed up:
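Mouse ATDC5 cells in insulin (10 μg/ml)-containing DMEM/F12 differentiation medium with 5% FCS were exposed to compound, typically 40 nM–10 μM at 0.1% DMSO, for 4 days at 37 °C. Intracellular collagen type II was quantified by Alexa Fluor 488 immunostaining with high-content imaging, relative to DMSO and a 10 μM reference compound.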

Test [2] deals with primary human chondrocyte pellet cultures. The experiment in a line: Chondrogenesis activity assay in primary human chondrocyte pellet cultures (proteoglycan (aggrecan) induction, Blyscan assay). It is filed as cell-based. As to conditions: for EC50: 336 h, proteoglycan (aggrecan) induction, primary human chondrocyte pellets, 2 weeks culture; for Emax: Homo sapiens, Chondrocyte, maximum percent proteoglycan (aggrecan) induction relative to the internal reference compound at 10 μM. As to the method: B) Chondrogenesis Activity Assay in Primary Human Chondrocyte Pellet Cultures
In this assay human articular chondrocytes are harvested by enzymatic digestion from articular cartilage and passaged several times to dedifferentiate the chondrocytes and to propagate the cells. Cells are cultured as cell pellets in the presence of the compounds of the invention over 2 weeks, and the chondrogenic differentiation is quantified by the production of the chondrogenic marker aggrecan (proteoglycan).
In detail, primary chondrocytes were harvested by enzymatic digestion from cartilage of osteoarthritis patients undergoing knee joint replacement surgery, and cultured in vitro. Cells were passaged one or two times and aliquots were cryopreserved. To initiate chondrogenesis experiments, cell aliquots were thawn, cultured in Chondrocyte Growth Medium (CGM, Lonza, #CC-3216) and passaged twice to further propagate and dedifferentiate cells. Pellet cultures were initiated by seeding 2.5×10E5 cells per well into a 96-well deep well plate in 600 μl chondrocyte differentiation medium consisting of Dulbecco's Modified Eagle Medium (DMEM, Invitrogen, #41966), 1×ITS-solution (Insulin/Transferrin/sodium selenite; 100× solution: Invitrogen, #51500056), 5 μg/mL linoleic acid (Sigma, #L1012-1G), 1× nonessential amino acids (100× solution: Invitrogen, #11140); 10 nM Dexamethasone, 2 ng/ml TGF-β1 (transforming growth factor β1) and 10 μg/ml ascorbic acid. Cells were spun to pellets by centrifugation (10 min, 400×g). Test compounds dissolved in DMSO were added to yield increasing compound concentrations, typically from 40 nM to 10 μM, and a final DMSO concentration of 0.1%, and the cell pellets cultured at 37° C., and 5% CO2 for 2 weeks. On each 96-well plate, control wells containing no test compound but the same concentration of DMSO, i.e. untreated cells, were included and used as reference for the determination of the effect of the test compounds on the cells, and wells containing an internal reference compound at a concentration of 10 μM were included and used as positive control and for standardizing the results. Chondrocyte differentiation medium and the compounds were exchanged twice weekly until harvest of the pellets.
For harvest of the pellets, medium was removed and the pellet was homogenized by enzymatic digestion. 100 μl of protease solution containing 0.4 mg/ml papain, 50 mM sodium phosphate, 4 mM EDTA and 0.48 mg/ml L-cysteine was added to the pellet in each well of a 96-well plate, the plate was sealed with a plate sealer foil (SILVERseal, Greiner Bio-One) and incubated for 4 to 6 hours at 65° C. with agitation.
The concentration of proteoglycan (aggrecan) was determined by quantification of the sulfated glycosaminoglycan side chains of aggrecan using the Blyscan assay (Kit from Biocolor). Aliquots of the papain-digest were transferred to 400 μl of Blyscan dye solution and incubated at room temperature for 45 min with agitation (1200 rpm). The mixture was centrifuged at 3760×g for 45 min, the supernatant was discarded, and the stained pellet was redissolved in 400 μl of Blyscan dissociation reagent by rotation until the precipitate completely resolved. Optical density was measured at 656 nm using a Tecan Saphire2 instrument, and the amount of proteoglycan determined against a standard curve with chondroitin-4-sulfate.
Induction of proteoglycan (aggrecan) was calculated for each compound concentration relative to the control (untreated cells, i.e. no test compound added), and an EC50 value (effective concentration 50 (in μM (micromollliter)), i.e. the compound concentration at which the effect of the compound on proteoglycan (aggrecan) induction reaches 50% of the maximum induction) was calculated using a sigmoidal signal fit procedure. […]

On to `Cc1nccc2c1[nH]c1c(-c3cc(C(F)(F)F)cc(C(F)(F)F)c3)cc(Cl)cc12` [Example 251, 8-(3,5-Bis-trifluoromethyl-phenyl)-6-chloro-1-methyl-9H-pyrido[3,4-b]indole], for which, in test [1], the EC50 – broadly, the concentration at which the effect is half-maximal – is over 10 µM and the Emax (commonly the maximal effect, on the per cent scale that the assay sets) was under 20%. In test [2], this compound yielded an EC50 of 9.1 µM and an Emax of 40 to 100%.

In test [1], `COc1cc(-c2cc(Cl)cc3c2[nH]c2c(C)nccc23)ccc1OCc1cccc(F)n1` [Example 223, 6-Chloro-8-[4-(6-fluoro-pyridin-2-ylmethoxy)-3-methoxy-phenyl]-1-methyl-9H-pyrido[3,4-b]indole] displayed an EC50 of over 3.3 µM and an Emax of 20 to 50%. In test [2], this compound gave an EC50 of 27 µM and an Emax of under 40%.

With `COc1ccc(-c2cc(Cl)cc3c2[nH]c2c(C)nccc23)cc1Cl` [Example 206, 6-Chloro-8-(3-chloro-4-methoxy-phenyl)-1-methyl-9H-pyrido[3,4-b]indole], in test [1], the EC50 is over 10 µM and the Emax was 20 to 50%. For the same compound, in test [2], the EC50 was determined as 19 µM and the Emax is under 40%.

In test [1], `CCc1cc2c([nH]c3c(-c4ccc(OCCn5cccn5)cc4)cc(Br)cc32)c(C)n1` [Example 212, 6-Bromo-3-ethyl-1-methyl-8-[4-(2-pyrazol-1-yl-ethoxy)-phenyl]-9H-pyrido[3,4-b]indole] returned an EC50 of over 3.3 µM and an Emax of under 20%. Also, in test [2], the EC50 was determined as 8.9 µM and the maximal response (Emax) was under 40%.

For `Cc1nccc2c1[nH]c1c(-c3cccc(N4CCOCC4)c3)cc(Cl)cc12` [Example 247, 6-Chloro-1-mehtyl-8-(3-morpholin-4-yl-phenyl)-9H-pyrido[3,4-b]indole], the EC50 in test [1] was over 3.3 µM; in test [2], 3.8 µM. The Emax was under 20% in test [1] and over 200% in test [2].

As to `Cc1nccc2c1[nH]c1c(-c3cccc(C(=O)NCCN(C)C)c3)cc(Cl)cc12` [Example 265, 3-(6-Chloro-1-methyl-9H-pyrido[3,4-b]indol-8-yl)-N-(2-dimethylamino-ethyl)-benzamide], the EC50 is over 1.1 µM in test [1] and 3.8 µM in test [2]. For the same compound, the maximal effect (Emax) in test [1] was under 20%; in test [2], under 40%.

In the case of `Cc1nccc2c1[nH]c1c(-c3cccc(Oc4ncc(Br)cn4)c3)cc(Cl)cc12` [Example 37, 8-[3-(5-Bromo-pyrimidin-2-yloxy)-phenyl]-6-chloro-1-methyl-9H-pyrido[3,4-b]indole], in test [1], the EC50 was over 3.3 µM and the Emax was 20 to 50%. In test [2], this compound had an EC50 of 4.3 µM and an Emax of 100 to 200%.

Take `Cc1nccc2c1[nH]c1c(-c3ccnc(N4CCNCC4)c3)cc(Cl)cc12` [Example 213, 6-Chloro-1-methyl-8-(2-piperazin-1-yl-pyridin-4-yl)-9H-pyrido[3,4-b]indole]: in test [1], the EC50 is over 1.1 µM and the Emax is under 20%. Besides, in test [2], the EC50 was determined as 1.2 µM and the Emax is 100 to 200%.

In test [1], `Cc1nccc2c1[nH]c1c(-c3ccc(OCc4nccn4C)cc3)cc(Cl)cc12` [Example 39, 6-Chloro-1-methyl-8-[4-(1-methyl-1H-imidazol-2-ylmethoxy)-phenyl]-9H-pyrido[3,4-b]indole] registered an EC50 of 0.17 µM and a maximum response (Emax) of over 80%. In test [2], this compound registered an EC50 of 3.7 µM and a maximal effect (Emax) of over 200%.

In test [1], `CCn1c2c(-c3cnn(Cc4cccnc4)c3)cc(Br)cc2c2ccnc(C)c21` [Example 5, 6-Bromo-9-ethyl-1-methyl-8-(1-pyridin-3-ylmethyl-1H-pyrazol-4-yl)-9H-pyrido[3,4-b]indole] gave a half-maximal effective concentration (EC50) of 0.49 µM and an Emax of over 80%. In test [2], this compound showed an EC50 of 1.3 µM and an Emax of over 200%.

In test [1], `Cc1nccc2c1[nH]c1c(-c3ccc4c(c3)CC(C)(C)O4)cc(Cl)cc12` [Example 236, 6-Chloro-8-(2,2-dimethyl-2,3-dihydro-benzofuran-5-yl)-1-methyl-9H-pyrido[3,4-b]indole] came in with an EC50 of over 3.3 µM and an Emax of under 20%. In test [2], this compound came in with an EC50 of 4.6 µM and an Emax of over 200%.

With `Cc1nccc2c1[nH]c1c(-c3ccc(CN)cc3)cc(Cl)cc12` [Example 241, 4-(6-Chloro-1-methyl-9H-pyrido[3,4-b]indol-8-yl)-benzylamine], the concentration giving a half-maximal response (EC50) in test [1] is over 1.1 µM; in test [2] it was 1.5 µM. Besides, the Emax in test [1] lay in the range of 20 to 50%; in test [2] it was 100 to 200%.

As for `CCn1c2c(-c3ccnn3C)cc(Cl)cc2c2ccnc(C)c21` [Example 19, 6-Chloro-9-ethyl-1-methyl-8-(2-methyl-2H-pyrazol-3-yl)-9H-pyrido[3,4-b]indole], in test [1], the EC50 is over 10 µM and the Emax lay in the range of 50 to 80%. In test [2], the EC50 is 6.9 µM and the Emax was 40 to 100%.

In test [1], `CCn1c2cnccc2c2cc(Cl)cc(-c3ccc(Cl)nc3Cl)c21` [Example 55, 6-Chloro-8-(2,6-dichloro-pyridin-3-yl)-9-ethyl-9H-pyrido[3,4-b]indole] gave an EC50 of 0.65 µM and an Emax of over 80%. For the same compound, in test [2], a half-maximal effect (EC50) was put at 0.95 µM and the Emax is 100 to 200%.

In test [1], `COc1ccc(-c2cc(Cl)cc3c2[nH]c2c(C)nccc23)cc1` [Example 149, 6-Chloro-8-(4-methoxy-phenyl)-1-methyl-9H-pyrido[3,4-b]indole] returned an EC50 of 0.33 µM and a maximal response (Emax) of over 80%. For the same compound, in test [2], the EC50 amounted to 1.1 µM and the Emax was 100 to 200%.

As for `CCc1cc2c3cc(Br)cc(-c4cnn(C)c4)c3n(CC)c2c(C)n1` [Example 216, 6-Bromo-3,9-diethyl-1-methyl-8-(1-methyl-1H-pyrazol-4-yl)-9H-pyrido[3,4-b]indole], in test [1], the EC50 is over 10 µM and the Emax is under 20%. In test [2], this compound had an EC50 of 0.99 µM and an Emax of over 200%.

`COc1nc(Cl)ccc1-c1cc(Cl)cc2c1[nH]c1c(C)nccc12` [Example 122, 6-Chloro-8-(6-chloro-2-methoxy-pyridin-3-yl)-1-methyl-9H-pyrido[3,4-b]indole]: in test [1], the EC50 is over 3.3 µM and the Emax fell in the range of 20 to 50%. In test [2], this compound displayed an EC50 of 3.6 µM and an Emax of 100 to 200%.

In test [1], `OCCn1cc(-c2cc(Cl)cc3c4ccncc4n(CC(F)(F)F)c23)cn1` [Example 10, 2-(4-[6-Chloro-9-(2,2,2-trifluoroethyl)-9H-pyrido[3,4-b]indol-8-yl]pyrazol-1-yl)ethanol] had an EC50 of 0.69 µM and an Emax of over 80%. Besides, in test [2], the EC50 is 2.4 µM and the maximal response (Emax) fell in the range of 40 to 100%.

`Cc1nccc2c1[nH]c1c(-c3c[nH]nc3Cc3ccccc3)cc(Cl)cc12` [Example 199, 8-(3-Benzyl-1H-pyrazol-4-yl)-6-chloro-1-methyl-9H-pyrido[3,4-b]indole]: in test [1], the EC50 is over 10 µM and the Emax is under 20%. In test [2], this compound returned an EC50 of 22 µM and an Emax of under 40%.

In the case of `CCn1c2c(-c3cnn(C)c3)cc(Br)cc2c2cc(C)nc(C)c21` [Example 21, 6-Bromo-9-ethyl-1,3-dimethyl-8-(1-methyl-1H-pyrazol-4-yl)-9H-pyrido[3,4-b]indole], in test [1], the EC50 is over 3.3 µM and the Emax was in the range of 20 to 50%. In test [2], this compound gave an EC50 of 4.3 µM and an Emax of over 200%.
